Assay results: PMC10630452, “The tumor-enriched small molecule gambogic amide suppresses glioma by targeting WDR1-dependent cytoskeleton remodeling” (Signal Transduction and Targeted Therapy, 2023)

Experiments:
T12-1 cells (PDC) = test: IC50 assay (MTS cell viability); assay type: cell-based; details: Homo sapiens, T12-1, PDC, 48 h
Method: (§1) Four PDC lines (T12-1, T12-2, T2-4, T19-1) obtained from the Beijing Tiantan Hospital[53] and three GSC lines (GSC2, U87MG-SLC, U251-SLC) were established and verified in our previous work.[17] Two GCSC lines were kindly provided by Dr. Ran.[54] These cell lines were cultured in neurobasal medium (Gibco) containing 2% B27 (Gibco), 1% 100 × Antibiotic-Antimycotic (Gibco), 2 mmol/L L-glutamine (catalog SH30034.01, HyClone), 20 ng/mL bFGF (catalog 100-18B-50UG, PeproTech), 20 ng/mL EGF (catalog AF-100-15-100UG, PeproTech), and 10 μg/mL heparin (Sigma‒Aldrich). H1-NSCs obtained from D.Q. Pei’s laboratory (Guangzhou Institutes of Biomedicine and Health, Chinese Academy of Sciences, Guangzhou, China), were cultured in the same medium as the PDCs, with the addition of 1% N-2 supplement (Gibco, Thermo Fisher Scientific). The human astrocyte (HA) cell line was purchased from ScienCell and cultured in commercial astrocyte medium (catalog 1801, ScienCell) supplemented with 1% AGS (ScienCell), 2% FBS (ScienCell) and 1% P/S solution (ScienCell). Regarding the GC cell lines, U87MG cells were purchased from the American Type Culture Collection (ATCC), and U251 cells were purchased from the Cell Center of Peking Union Medical College. The GC cells were cultured in DMEM (Gibco) supplemented with 10% FBS (ScienCell) and 1% 100 × Antibiotic-Antimycotic.
(§2) Cells were seeded in 96-well plates and treated with 0, 0.03, 0.1, 0.3, 1, 3, 10, or 30 μM GA-amide (Santa Cruz) in triplicate. After 48 h of incubation, cell viability was quantified using the MTS assay, and the GA-amide cytotoxicity curve was estimated using GraphPad Prism.

U251 cells (GC) = test: IC50 assay (MTS cell viability); assay type: cell-based; details: Homo sapiens, U-251, 48 h
Method: as §1, §2

H1P56NSC (H1-NSCs) = test: IC50 assay (MTS cell viability); assay type: cell-based; details: Homo sapiens, normal cells (NC), 48 h
Method: as §1, §2

SNU5-SLC cells (GCSC) = test: IC50 assay (MTS cell viability); assay type: cell-based; details: 48 h
Method: as §1, §2

T12-2 cells (PDC) = test: IC50 assay (MTS cell viability); assay type: cell-based; details: Homo sapiens, T12-2, PDC, 48 h
Method: as §1, §2

U87MG cells (GC) = test: IC50 assay (MTS cell viability); assay type: cell-based; details: Homo sapiens, U-87 MG, 48 h
Method: as §1, §2

BGC-823-SLC cells (GCSC) = test: IC50 assay (MTS cell viability); assay type: cell-based; details: 48 h
Method: as §1, §2

subcutaneous glioma PDX = test: Subcutaneous PDX model of glioma (GBM1); assay type: in vivo, nude mice
Method: Fig. 2 The BBB permeability and tumor suppressor ability of GA-amide compared with TMZ. GA-amide (a) or TMZ (b) concentration in the tumor area and normal brain tissue following a single injection of GA-amide (10 mg/kg, i.v.) or TMZ (10 mg/kg, i.v.). The data are presented as the means ± SEMs (n = 3). c Western blot analysis of the expression of TrkA in mouse tumor tissues (T) and normal brain tissues (N), n = 4. d Western blot analysis of glycosylated TrkA expression in human normal brain tissues (N) and glioma tissues of different grades. e Time curve of GA-amide and TMZ treatment in a cell viability assay (MTS) in T2-4, GSC2 and T12-1 cells. f–h A PDX mouse model was established, and the mice were treated with vehicle (control, n = 9), 2 mg/kg GA-amide (n = 9), 2 mg/kg GAC (n = 9) or […] TMZ (n = 8) by i.p. injection daily for 10 days. A summary photograph is presented in (f), statistical results in (g) and the body weights of mice in (h); the mean ± SEMs are shown. n.s: P ≥ 0.05, *P < 0.05, **P < 0.01 and ***P < 0.001 compared with the control group by one-way ANOVA at each time point
Male nude mice aged 5–6 weeks were selected for establishment of the in vivo glioma mouse models. For the PDX models, the tumor sample will be soaked in HBSS solution on ice and transferred from the hospital to the laboratory. Patient-related information was shown in Supplementary Table 4). For the subcutaneous PDX models, the isometric fresh GBM tumor (GBM1) specimens were implanted s.c. into the flank of a nude mouse. Then, the mice were treated with GA-amide (2 mg/kg i.p.), gambogic acid (2 mg/kg i.p.), TMZ (65 mg/kg i.p., Selleck) or vehicle after the tumors grew to 100 mm^3. The mouse body weights were measured, and tumor volumes were calculated using the formula L × W^2/2. After treatment, the xenografts were harvested and photographed.

[1] = Acute toxicity assay, body weight; assay type: in vivo, mice; details: low dose 1 mg/kg, high dose 10 mg/kg, one-time i.v.
Method: a Hematoxylin and eosin staining of sections from control and GA-amide-treated livers, kidney and small intestines, scale bars were shown in the panel. b Persistent records of the body weights and the statistical results of the body weight changes after one-time i.v. treatments of control (DMSO), 1 mg/kg GA-amide and 10 mg/kg GA-amide (n = 6, for control and 1mg/kg GA-amide; n = 5, for 10mg/kg GA-amide) were shown.

PDCs = test: Apoptosis assay (annexin V/PI flow cytometry); assay type: cell-based, human; details: 4 h, varying concentrations
Method: An apoptosis detection kit (KeyGEN BioTECH) was used for the PDC apoptosis assay. After treatment with different concentrations of GA-amide, cells were collected and resuspended in 100 µL of binding buffer with 1 µl FITC Annexin V and 1 µl PI for 15 min at room temperature in the dark. The cell suspensions were analyzed by flow cytometry within 1 h.

CC(C)=CCC[C@]1(C)C=Cc2c(O)c3c(c(CC=C(C)C)c2O1)O[C@]12C(=C[C@@H]4CC1C(C)(C)O[C@@]2(C/C=C(/C)C(N)=O)C4=O)C3=O [GA-amide, gambogic amide]
IC50 (T12-1 cells (PDC)): 249 nM | IC50 (U251 cells (GC)): 168 nM | IC50 (H1P56NSC (H1-NSCs)): 941 nM | IC50 (SNU5-SLC cells (GCSC)): 962 nM | IC50 (T12-2 cells (PDC)): 286 nM | IC50 (U87MG cells (GC)): 231 nM | IC50 (BGC-823-SLC cells (GCSC)): 870 nM | body weight of mice (subcutaneous glioma PDX; 2 mg/kg i.p. daily for 10 days): did not cause the loss of body weight | tumor volume versus control (subcutaneous glioma PDX; 2 mg/kg i.p. daily for 10 days): significantly decreased compared with those in the control group | Ki67, CD133 and cleaved caspase3 in tumor sections (immunohistology) (subcutaneous glioma PDX; PDX tumors at endpoint, 10 days treatment): decreased expression of Ki67 and the GSC marker prominin 1 (CD133) as well as an increased level of cleaved caspase3 | histology of liver, kidney and small intestine (H&E) (subcutaneous glioma PDX; after GA-amide treatment): no discernible abnormalities | body weight after a single injection [1]: did not change the body weight | apoptosis (annexin V/PI) (PDCs): significantly induced the apoptosis of PDCs in a dose-dependent manner
